In paper PMC3852661, “Structural basis of SUFU–GLI interaction in human Hedgehog signalling regulation” (Acta Crystallographica Section D: Biological Crystallography, 2013):

Legend:
[1] = tested on: MBP-SUFU-FL, mutation of Tyr147; experiment: Microscale thermophoresis, MBP-SUFU-FL mutated at Tyr147; type: binding, human; settings: mutation of Tyr147 in MBP-SUFU-FL, data not shown
Method: A 5-FAM-labelled peptide (FAM-GLI1p) comprising residues 115–131 of GLI1 (Supplementary Table S1b) was synthesized by Pepceuticals Ltd. A titration series of each recombinant protein was prepared by serial 1:1 dilutions in MST buffer (50 mM Tris–HCl pH 7.6, 150 mM NaCl, 10 mM MgCl2, 0.05% Tween-20) and mixed in a 1:1 ratio with FAM-GLI1p to give final concentrations of 50 nM FAM-GLI1p with MBP-SUFU constructs in the ranges 14.2–29 070 and 54–110 500 nM. Reactions were aspirated into glass capillaries and the thermophoretic movement of FAM-GLI1p was monitored using a Monolith NT.115 instrument (NanoTemper Technologies; Wienken et al., 2010[▶]), with a laser on for 30 s and off for 5 s and a laser power/voltage of 20% for MBP-SUFU-FL and the MBP-SUFU-FL mutants, 40% for MBP-SUFU-Δ and 80% for MBP-SUFU-SH. Fluorescence was measured before laser heating (F Cold) and after 30 s of laser-on time (F Hot). The normalized fluorescence F Hot/F Cold reflects the concentration ratio of labelled molecules. F Hot/F Cold was plotted directly and multiplied by a factor of […], yielding a relative change in fluorescence per thousand. K d was calculated from three independent thermophoresis measurements using NanoTemper software (NanoTemper Technologies). […]

[2] = biological target: T1, MBP-SUFU-Δ (Homo sapiens, UniProt Q9UMX1, DEL285-359/L360P/P281R/P282G/R280S/S279P); experiment: Thermal stability assay with peptide, MBP-SUFU-Δ; type: binding; settings: 44 µM peptide, 2.2 µM protein, SYPRO Orange, 50 mM Na HEPES pH 7.0, 50 mM NaCl, 5 mM β-mercaptoethanol; triplicate
T1 construct: subcloning different SUFU32–483 variants into vector pLJMBP4c; His tag (as in MBP-SUFU-FL; purified on HisTrap) (C); made in house; host or cells: Escherichia coli JM109 (DE3)
T1 sequence (Q9UMX1 with tags, fused parts or gaps S279P/R280S/P281R/P282G/DEL285-359/L360P limits assumed, other chains not shown): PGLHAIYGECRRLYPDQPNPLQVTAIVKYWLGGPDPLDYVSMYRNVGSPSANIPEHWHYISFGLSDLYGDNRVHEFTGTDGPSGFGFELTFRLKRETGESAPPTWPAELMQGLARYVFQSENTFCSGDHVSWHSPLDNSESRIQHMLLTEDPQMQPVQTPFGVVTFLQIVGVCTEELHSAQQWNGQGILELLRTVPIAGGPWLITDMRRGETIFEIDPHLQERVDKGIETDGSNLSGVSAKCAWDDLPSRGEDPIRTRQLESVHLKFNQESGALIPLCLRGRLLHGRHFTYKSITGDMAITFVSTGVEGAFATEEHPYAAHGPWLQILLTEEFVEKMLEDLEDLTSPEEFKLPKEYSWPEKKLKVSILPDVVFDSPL
Method: Recombinant MBP-SUFU proteins were diluted to 2.6 μM in 50 mM Na HEPES pH 7.0, 50 mM NaCl, 5 mM β-mercaptoethanol; the peptides GLI1p and GLI1p-SH (Supplementary Table S1b), synthesized by Dr W. Mawby (University of Bristol), were dissolved in the same buffer. Proteins were spun at 14 000g for 20 min at 4°C before adding SYPRO Orange (Molecular Probes) to a final concentration of 6×. Reaction volumes of 25 μl were prepared in 96-well PCR plates with 2.2 μM protein/SYPRO Orange solution and, where applicable, 44 μM peptide. Plates were sealed with optical tape, heated from 20 to 90°C in 12 s 0.2°C steps in an iCycler and fluorescence was detected using an excitation wavelength of 470 nm and an emission wavelength of 570 nm. To determine whether the IDR affects the GLI-binding properties of SUFU, we used a human GLI1-derived peptide (GLI1p; residues 115-131; Supplementary Table S1b) containing the highly conserved SYGH motif important for interaction with SUFU (Dunaeva et al., 2003[▶]) in a thermal stability assay with MBP-SUFU-FL and MBP-SUFU-Δ (Fig. 4 ▶ a). The addition of GLI1p stabilized both proteins: T m for MBP-SUFU-FL was shifted by 4°C and that for MBP-SUFU-Δ was shifted by 3.6°C. […] The GLI1 dose dependency of this effect was confirmed in a separate experiment with increasing GLI1p concentrations (Supplementary Fig. […]).

For “GLI1p: human GLI1-derived peptide; residues 115–131, containing the highly conserved SYGH motif (TSPGGSYGHLSIGTMSP)”, the detectable binding [1] was “abolished detectable binding” and the Tm shift [2] was 3.6 °C.
